In US8263587B2, “Benzoxazepine compounds, their preparation and use” (Piramal Healthcare Limited, priority 2006, dated 2012):
One block for each molecule: values may come before it.

Assays:
3T3-L1 pre-adipocytes = experiment: Potentiation of insulin-stimulated lipogenesis in 3T3-L1 adipocytes; type: cell-based; conditions: over insulin control = 1
Experimental: 3T3-L1 pre-adipocytes were grown to confluence in 25 ml culture flasks in DMEM (Dulbecco's Modified Eagle's Medium, with 25 mM glucose) containing 10% fetal calf serum (FCS) and antibiotics in a humidified atmosphere of 5% CO2 and 95% air at 37° C. The medium was changed every 2-3 days. The cells were trypsinised at confluency using 0.25% trypsin and transferred to another flask.
For the assay, cells were grown in 24 well plates. Induction of differentiation was done when the cells had grown to confluency with DMEM containing 5% FCS and supplemented with 0.5 mM IBMX (3-Isobutyl-1-methylxanthine), 0.5 μM DEX (dexamethasone) and 1 μg/ml insulin. […] The medium was changed three times, each at an interval of 2 days. On the day of termination of medium changes, lipogenesis assay was performed.
3T3-L1 cells were grown to confluency in 24 well plates. […] On the day of termination of the assay the cells were incubated in […] KRHB (Krebs-Ringer Hepes buffer) for 2 hr at 37° C. in a CO2 incubator. This was replaced with fresh KRHB with 0.1 mM glucose containing 100 nM insulin, test compound or insulin plus test compound. Lipogenesis was initiated by the addition of 20 μl of 50 μCi/ml [^3H]-D-Glucose to each well and incubation for 90 min at 37° C. in a CO2 incubator. The reaction was terminated by aspirating the medium from each well and washing the cells rapidly 3 times with ice-cold PBS (phosphate buffered saline). 500 μl of 0.2 N NaOH was added to lyse the cells. 450 μl was aliquoted into scintillation vials and scintillation cocktail added. The vials were read in Liquid Scintillation Counter. Results are expressed as fold activation of the standard or test compound over the control (Table 2).

isolated rat hepatocytes [1] = experiment: Inhibition of gluconeogenesis in isolated rat hepatocytes; type: cell-based; conditions: 5 mM fructose
Experimental: Assay protocol for determination of inhibition of gluconeogenesis by compounds in isolated rat hepatocytes:
Hepatocytes were isolated by collagenase digestion of perfused livers from male Wistar rats fasted overnight according to the method described in J. Cell. Science., 56, 233-244, 1982, the disclosure of which is incorporated by reference for the teaching of the method.
(§1) The assay was done in three groups: basal, control and test. The test compounds were added to the vials at different concentrations. The isolated hepatocytes were added to the vials and they were incubated at 37° C. for 15 min. After 15 min, 5 mM fructose (precursor for gluconeogenesis) was added to the control and test group. Vials were again incubated at 37° C. for one hour with constant shaking (80 cycles/min.). Incubation was terminated by centrifuging the reaction mixture at 3000 rpm for 5 min. The supernatant was used for determination of both glucose and lactate dehydrogenase (LDH) (Table 1).
An active compound would decrease the amount of glucose formed, which is read at 520 nm by glucose oxidase-peroxidase method.

isolated rat hepatocytes [2] = experiment: LDH leakage from isolated rat hepatocytes; type: cell-based
Experimental: as §1
The LDH activity is measured, by the method described in Meth. Enz. Ana. 3, 118-125, 1984, the disclosure of which is incorporated by reference for the teaching of the method, as the amount of pyruvate consumed by continuously monitoring the decrease in absorbance due to oxidation of NADH (Nicotinamide Adenine Dinucleotide-reduced form) at 339 nm.

[3] = system: STZ induced diabetic rats; experiment: Streptozotocin-induced diabetes in rats, blood glucose; type: in vivo, male Wistar rats; conditions: for Percent reduction in blood glucose: STZ diabetic rats
Experimental: Diabetes was induced in male Wistar rats by intraperitoneal (i.p.) injection of streptozotocin (STZ) (60 mg/kg) dissolved in 0.05 M citrate buffer, pH 4.6. Plasma glucose levels were estimated 48 hours after STZ administration. […] The rats were divided into […] (n=8 in each group): the first (control) group consisted of untreated animals, the second group had diabetic animals and the third and fourth groups consisted of diabetic animals treated with the test compounds (50 and 100 mg/kg respectively). Test compounds were administered p.o. for 8 days to STZ induced diabetic rats (180-200 g). Blood glucose was measured on day 0, 3 and 8 (Table 3).

hPPARγ = target: T1, hPPARγ (Homo sapiens, UniProt P37231); experiment: hPPARγ transactivation in cell-based assay (CV-1 cells, luciferase); parameters: Emax: dose or concentration left out as unconfirmed; conditions: for PPARγ (Fold activation at 1 μM): CV-1 cells transfected with hPPARγ
T1 construct: expressed in transfected cells; host or cells: CV-1 cells
T1 sequence (P37231 1-505): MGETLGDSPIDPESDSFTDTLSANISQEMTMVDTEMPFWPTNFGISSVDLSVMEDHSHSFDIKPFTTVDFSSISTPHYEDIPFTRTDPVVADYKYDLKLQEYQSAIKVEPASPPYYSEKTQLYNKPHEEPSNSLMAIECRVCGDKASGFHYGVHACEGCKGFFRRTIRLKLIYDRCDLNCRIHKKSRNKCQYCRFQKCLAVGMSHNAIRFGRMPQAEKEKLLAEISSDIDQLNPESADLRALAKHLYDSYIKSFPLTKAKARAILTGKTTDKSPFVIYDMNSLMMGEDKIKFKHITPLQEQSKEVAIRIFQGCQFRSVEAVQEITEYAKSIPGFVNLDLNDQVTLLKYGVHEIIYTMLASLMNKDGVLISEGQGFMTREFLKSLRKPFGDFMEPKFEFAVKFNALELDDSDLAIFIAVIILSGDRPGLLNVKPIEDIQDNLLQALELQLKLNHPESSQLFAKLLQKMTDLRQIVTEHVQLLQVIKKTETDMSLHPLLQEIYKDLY
Experimental: (§2) Cell based transcription assay was employed to identify hPPAR γ/α agonists. CV-1 cells were maintained in MEM (minimum essential medium) containing 10% FBS (fetal bovine serum). Cells were seeded at a density of 80,000 cells/well in a 24-well plate one day prior to transfection. CV-1 cells were transiently transfected with hPPAR γ/α using Lipofectamine 2000. […] Receptor activation by ligands leads to activation of luciferase expression, which was measured after 15-16 h incubation. The cells were washed with PBS, lysed, and luciferase activity measured in a microplate luminometer. […] Both compounds were synthesized in-house. Maximum activation with the reference agonists was defined as 100%. Receptor activation by test compounds is presented as percentage of maximum activation caused by the respective reference agonists in Table 4(a), Table 4(b) and Table 4(c).

hPPARα = target: T2, hPPARα (Homo sapiens, UniProt Q07869); experiment: hPPARα transactivation in cell-based assay (CV-1 cells, luciferase)
T2 construct: expressed in transfected cells; host or cells: CV-1 cells
T2 sequence (Q07869 1-468): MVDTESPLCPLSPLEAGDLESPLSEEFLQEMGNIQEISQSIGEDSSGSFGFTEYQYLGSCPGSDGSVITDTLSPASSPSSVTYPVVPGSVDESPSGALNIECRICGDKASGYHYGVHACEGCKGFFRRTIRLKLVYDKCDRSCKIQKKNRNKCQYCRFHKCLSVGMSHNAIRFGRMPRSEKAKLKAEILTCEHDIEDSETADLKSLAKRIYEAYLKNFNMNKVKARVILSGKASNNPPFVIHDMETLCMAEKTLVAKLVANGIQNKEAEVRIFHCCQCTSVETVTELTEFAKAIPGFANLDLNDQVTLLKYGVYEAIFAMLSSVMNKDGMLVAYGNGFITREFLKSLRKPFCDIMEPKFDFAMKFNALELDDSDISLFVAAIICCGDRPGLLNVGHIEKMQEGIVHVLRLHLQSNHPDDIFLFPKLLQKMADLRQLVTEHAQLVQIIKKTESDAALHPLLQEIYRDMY
Experimental: as §2

[4] = with insulin, concentration not given
[5] = Rattus norvegicus, Hepatocyte, 10 μM, read-out: Gluconeogenesis (glucose production) % inhibition
[6] = Rattus norvegicus, Hepatocyte, read-out: Gluconeogenesis (glucose production) % inhibition
[7] = 10 μM, isolated rat hepatocytes
[8] = 25 μM, isolated rat hepatocytes
[9] = 50 μM, isolated rat hepatocytes
[10] = 100 μM, isolated rat hepatocytes
[11] = Rattus norvegicus, Hepatocyte, 50 μM, read-out: Gluconeogenesis (glucose production) % inhibition
[12] = Rattus norvegicus, Hepatocyte, 100 μM, read-out: Gluconeogenesis (glucose production) % inhibition
[13] = one entry 'No leakage' for all concentrations tested of the compound (up to 100 μM)
[14] = CV-1, read-out: PPARγ activation as percentage of maximum activation by rosiglitazone

Compound: COC(=O)C(Cc1ccc2c(c1)CN(c1ccccn1)CCO2)C(=O)OC [Compound of Example 2]
Fold stimulation of insulin-stimulated lipogenesis (3T3-L1 pre-adipocytes; [4]): 2 fold

LDH % leakage (isolated rat hepatocytes [2]; [7]): 5% | LDH % leakage (isolated rat hepatocytes [2]; [8]): 5% | LDH % leakage (isolated rat hepatocytes [2]; [9]): 6% | LDH % leakage (isolated rat hepatocytes [2]; 75 μM, isolated rat hepatocytes): 7% | LDH % leakage (isolated rat hepatocytes [2]; [10]): 7%
Compound: O=C1NC(=O)C(=Cc2ccc3c(c2)CN(c2ccccn2)CCO3)S1 [Compound of Example 3, 5-(4-Pyridin-2-yl-2,3,4,5-tetrahydro-benzo[f][1,4]oxazepin-7-ylmethylene)-thiazolidine-2,4-dione]
Gluconeogenesis (glucose production) % inhibition (isolated rat hepatocytes [1]; 50 μM): 42% | Gluconeogenesis (glucose production) % inhibition (isolated rat hepatocytes [1]; 100 μM): 74% | inhibition at 10 µM (isolated rat hepatocytes [1]; [5]): 10% | inhibition at 25 µM (isolated rat hepatocytes [1]; [6]): 36% | inhibition at 75 µM (isolated rat hepatocytes [1]; Rattus norvegicus, Hepatocyte, 75 μM, read-out: Gluconeogenesis (glucose production) % inhibition): 51% | Fold stimulation of insulin-stimulated lipogenesis (3T3-L1 pre-adipocytes; 1 μM with insulin): 1.2 fold | Fold stimulation of insulin-stimulated lipogenesis (3T3-L1 pre-adipocytes; 10 μM with insulin): 1.4 fold | Fold stimulation of insulin-stimulated lipogenesis (3T3-L1 pre-adipocytes; 25 μM with insulin): 1.7 fold

Compound: O=C1NC(=O)C(Cc2ccc3c(c2)CN(c2ccccn2)CCO3)S1 (centres unmarked) [Compound of Example 4, 5-(4-Pyridin-2-yl-2,3,4,5-tetrahydro-benzo[f][1,4]oxazepin-7-yl-methyl)-thiazolidine-2,4-dione]
inhibition at 10 µM (isolated rat hepatocytes [1]; [5]): 27% | inhibition at 50 µM (isolated rat hepatocytes [1]; [11]): 35% | inhibition at 100 µM (isolated rat hepatocytes [1]; [12]): 57% | Fold stimulation of insulin-stimulated lipogenesis (3T3-L1 pre-adipocytes; 10 μM with insulin): 2 fold | Fold stimulation of insulin-stimulated lipogenesis (3T3-L1 pre-adipocytes; 100 μM with insulin): 2.3 fold | melting point: 180 to 181 °C | LDH % leakage (isolated rat hepatocytes [2]; [13]): No

Compound: O=C(O)/C=C\C(=O)O.O=C1NC(=O)C(Cc2ccc3c(c2)CN(c2ccccn2)CCO3)S1 (centres unmarked) [Compound of Example 5, 5-(4-Pyridine-2-yl-2,3,4,5-tetrahydro-benzo[f][1,4]oxazepin-7-ylmethyl)-thiazolidine-2,4-dione maleate]
Percent reduction in blood glucose ([3]; 50 mpk p.o. for 8 days): 28% | Blood glucose ([3]; 50 mpk p.o., Day 0, STZ diabetic rats): 16.8 ± 0.9 μmols/ml | Blood glucose ([3]; 50 mpk p.o., Day 3, STZ diabetic rats): 15.9 ± 3.0 μmols/ml | Blood glucose ([3]; 50 mpk p.o., Day 8, STZ diabetic rats): 14.1 ± 1.99 μmols/ml | Percent reduction in blood glucose ([3]; 100 mpk p.o. for 8 days): 31% | Blood glucose ([3]; 100 mpk p.o., Day 0, STZ diabetic rats): 17.0 ± 2.0 μmols/ml | Blood glucose ([3]; 100 mpk p.o., Day 3, STZ diabetic rats): 16.0 ± 1.09 μmols/ml | Blood glucose ([3]; 100 mpk p.o., Day 8, STZ diabetic rats): 13.0 ± 0.9 μmols/ml | PPARγ (Fold activation at 1 μM) (hPPARγ): 1.8 fold | Emax (hPPARγ; [14]): 12%

Compound: O=C1NC(=O)C(=Cc2ccc3c(c2)CN(c2nc4ccccc4o2)CCO3)S1 [Compound of Example 6, 5-(4-Benzooxazol-2-yl-2,3,4,5-tetrahydro-benzo[f][1,4]oxazepin-7-ylmethylene)-thiazolidine-2,4-dione]
Fold stimulation of insulin-stimulated lipogenesis (3T3-L1 pre-adipocytes; 10 μM with insulin): 1.4 fold

PPARγ (Fold activation at 1 μM) (hPPARγ): 0.7 fold | Emax at 1 µM (hPPARγ; [14]): 9% | PPARα (Fold activation at 20 μM) (hPPARα; 20 μM, CV-1 cells transfected with hPPARα): 1.5 fold | Emax at 20 µM (hPPARα; CV-1, read-out: PPARα activation as percentage of maximum activation by Wy-14643): 47% | LDH % leakage (isolated rat hepatocytes [2]; [13]): No
Compound: O=C1NC(=O)C(Cc2ccc3c(c2)CN(c2nc4ccccc4o2)CCO3)S1 (centres unmarked) [Compound of Example 7, 5-(4-Benzooxazol-2-yl-2,3,4,5-tetrahydro-benzo[f][1,4]oxazepin-7-yl-methyl)-thiazolidine-2,4-dione]
inhibition at 3 µM (isolated rat hepatocytes [1]; Rattus norvegicus, Hepatocyte, 3 μM, read-out: Gluconeogenesis (glucose production) % inhibition): 12% | inhibition at 30 µM (isolated rat hepatocytes [1]; Rattus norvegicus, Hepatocyte, 30 μM, read-out: Gluconeogenesis (glucose production) % inhibition): 19% | inhibition at 100 µM (isolated rat hepatocytes [1]; [12]): 50%

Compound: O=C(O)/C=C\C(=O)O.O=C1NC(=O)C(=Cc2ccc3c(c2)CN(c2ccccn2)CCO3)S1 [Compound of Example 8, 5-(4-Pyridin-2-yl-2,3,4,5-tetrahydro-benzo[f][1,4]oxazepin-7-ylmethylene)-thiazolidine-2,4-dione maleate]
Gluconeogenesis (glucose production) % inhibition (isolated rat hepatocytes [1]; 10 μM): 9% | Gluconeogenesis (glucose production) % inhibition (isolated rat hepatocytes [1]; 50 μM): 13% | Gluconeogenesis (glucose production) % inhibition (isolated rat hepatocytes [1]; 100 μM): 45% | Fold stimulation of insulin-stimulated lipogenesis (3T3-L1 pre-adipocytes; [4]): 1.8 fold | melting point: 224 to 226 °C | LDH % leakage (isolated rat hepatocytes [2]; [13]): No

LDH % leakage (isolated rat hepatocytes [2]; 5 μM, isolated rat hepatocytes): 9% | LDH % leakage (isolated rat hepatocytes [2]; [7]): 9% | LDH % leakage (isolated rat hepatocytes [2]; [8]): 10% | LDH % leakage (isolated rat hepatocytes [2]; [9]): 11% | LDH % leakage (isolated rat hepatocytes [2]; [10]): 15%
Compound: CN(CCOc1ccc(CC2SC(=O)NC2=O)cc1)c1ccccn1 (centres unmarked) [Rosiglitazone, reference compound]
inhibition at 5 µM (isolated rat hepatocytes [1]; Rattus norvegicus, Hepatocyte, 5 μM, read-out: Gluconeogenesis (glucose production) % inhibition): 11% | inhibition at 10 µM (isolated rat hepatocytes [1]; [5]): 28% | inhibition at 25 µM (isolated rat hepatocytes [1]; [6]): 43% | inhibition at 50 µM (isolated rat hepatocytes [1]; [11]): 57% | inhibition at 100 µM (isolated rat hepatocytes [1]; [12]): 68%
